Data: US6060462A, “Electrophilic peptide analogs as inhibitors of trypsin-like enzymes” (DuPont Pharmaceuticals Company, priority 1997, dated 2000)
Structures can show the parent of a compound that is named as a salt. Where two headings read alike, the source gives them in different places.

Key:
human thrombin = human thrombin (Homo sapiens, UniProt P00734); assay: Inhibition of thrombin hydrolysis of chromogenic substrate S2238 (Ki); format: biochemical; set-up: 0.2-0.5 nM human thrombin or human factor Xa; purchased Enzyme Research Laboratories, South Bend, Ind; details: purified human thrombin, 0.10 M sodium phosphate buffer, pH 7.5, read-out: Ki values for inhibition of Serine Proteases: Trombin
Method: (§1) The effectiveness of compounds of the present invention as inhibitors of blood coagulation proteases was determined using purified human proteases and synthetic substrates following procedures similar to those described in Kettner et al. (1990).
(§2) For these assays, the rate of enzymatic (thrombin, Factor Xa, and Factor VIIa) hydrolysis of chromogenic substrates (S2238 (H-D-Phe-Pip-Arg-pNA), S2222, and S2288, respectively; Kabi Pharmacia, Franklin, Ohio) was measured both in the absence and presence of compounds of the present invention. […] A decrease in the rate of absorbance change at 405 nm in the presence of inhibitor is indicative of enzyme inhibition. The results of this assay are expressed as inhibitory constant, Ki.
(§3) Thrombin and Xa determinations were made in 0.10 M sodium phosphate buffer, pH 7.5, containing 0.20 M NaCl, and 0.5% PEG 8000. VIIa determinations were made in 0.05 M tris buffer, pH 7.6, containing 0.10 M NaCl, 4 mM CaCl2, and 0.1% bovine serum albumin.
(§4) Reactions were allowed to go for 30 minutes and the velocities (rate of absorbance change vs time) were measured in the time frame of 25-30 minutes. The following relationship was used to calculate Ki values. [formula] where: vo is the velocity of the control in the absence of inhibitor;
(§5) vs is the velocity in the presence of inhibitor;
(§6) I is the concentration of inhibitor;
(§7) Ki is the dissociation constant of the enzyme: inhibitor complex;
(§8) S is the concentration of substrate;
(§9) Km is the Michaelis constant.

Thrombin time = Thrombin time (IC50), Table 80
human factor Xa = target: T1, human factor Xa (Homo sapiens, UniProt P00742); assay: Inhibition of Factor Xa hydrolysis of chromogenic substrate S2222 (Ki); format: biochemical; details: purified human factor Xa, 0.10 M sodium phosphate buffer
T1 construct: 0.2-0.5 nM human thrombin or human factor Xa; purchased Enzyme Research Laboratories, South Bend, Ind
T1 sequence (P00742 235-488 limits assumed): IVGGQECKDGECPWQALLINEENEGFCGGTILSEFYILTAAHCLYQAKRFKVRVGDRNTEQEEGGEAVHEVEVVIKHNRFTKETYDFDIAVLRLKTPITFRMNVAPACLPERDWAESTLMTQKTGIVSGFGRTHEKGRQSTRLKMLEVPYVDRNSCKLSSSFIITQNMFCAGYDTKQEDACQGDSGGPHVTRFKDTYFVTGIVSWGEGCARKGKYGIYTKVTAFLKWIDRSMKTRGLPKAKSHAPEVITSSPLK
T1 sequence (P00742 41-179 partner limits assumed): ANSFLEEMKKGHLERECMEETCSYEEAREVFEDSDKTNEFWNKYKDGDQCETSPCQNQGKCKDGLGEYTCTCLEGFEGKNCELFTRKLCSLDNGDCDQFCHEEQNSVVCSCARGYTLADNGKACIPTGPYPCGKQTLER
Method: as §1, §2, §3, §4, §5, §6, §7, §8, §9

human factor VIIa = target: T2, human factor VIIa (Homo sapiens, UniProt P08709); assay: Inhibition of Factor VIIa hydrolysis of chromogenic substrate S2288 (Ki); format: biochemical; details: purified human factor VIIa, 0.05 M tris buffer; for Ki: pH 7.6, read-out: Ki values for inhibition of Serine Proteases: Factor VIIa; for Ki values for inhibition of Serine Proteases: Factor VIIa: pH 7.6
T2 construct: 50 nM human factor VIIa (BiosPacific, Emeryville, Calif.); purchased BiosPacific, Emeryville, Calif
T2 sequence (P08709 213-466 limits assumed): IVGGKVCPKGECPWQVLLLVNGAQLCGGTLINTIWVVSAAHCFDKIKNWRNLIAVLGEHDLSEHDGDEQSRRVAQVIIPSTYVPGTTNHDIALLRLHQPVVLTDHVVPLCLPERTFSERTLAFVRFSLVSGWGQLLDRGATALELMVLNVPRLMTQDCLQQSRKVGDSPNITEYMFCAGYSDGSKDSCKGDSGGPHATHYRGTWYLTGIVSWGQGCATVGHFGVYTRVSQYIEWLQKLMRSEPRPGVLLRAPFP
T2 sequence (P08709 61-212 partner limits assumed): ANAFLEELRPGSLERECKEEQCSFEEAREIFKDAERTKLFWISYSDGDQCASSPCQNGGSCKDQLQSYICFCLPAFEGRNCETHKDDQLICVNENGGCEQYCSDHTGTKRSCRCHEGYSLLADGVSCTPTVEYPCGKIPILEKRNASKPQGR
Method: as §1, §2, §3, §4, §5, §6, §7, §8, §9

[1] = pH 7.5, read-out: Ki values for inhibition of Serine Proteases: Factor Xa

Ki (human thrombin)	IC50 (Thrombin time)	Ki (human factor Xa; [1])	Ki (human factor VIIa)	Ki (human factor Xa; pH 7.5, hydrochloride salt, read-out: Ki values for inhibition of Serine Proteases: Factor Xa)	Ki values for inhibition of Serine Proteases: Factor VIIa (human factor VIIa)	Molecule
< 500 nM	< 500 nM	–	–	–	–	NCCCCC(NC(=O)CN(C(=O)COc1ccccc1)C1CC1)B(O)O (stereo not shown) [Example 78.1.2, Phenoxyacetyl-[N-(Cyclopropyl)-Gly]-boroLys--OH HCl]
< 500 nM	< 500 nM	–	–	–	–	CC1(C)C2CC3OB(C(CCCCN)NC(=O)CN(C(=O)COc4ccccc4)C4CC4)OC3(C)C1C2 (stereo not shown) [Example 79.1.2, Phenoxyacetyl-[N-(Cyclopropyl)-Gly]-boroLys-C10H16 HCl]
< 500 nM	< 50000 nM	–	–	–	–	Hydrocinnamoyl-[N-(N-(Methyl)-Benzyl)-Gly]-boroLys-C10H16 HCl [Example 54.2.2]
< 500 nM	< 50000 nM	< 500 nM	< 50000 nM	–	–	NCCCCC(NC(=O)CN(CCc1ccccc1)C(=O)CCCC(=O)O)B(O)O (stereo not shown) [Example 66.1.1, Glutaryl-[N-(Phenethyl)-Gly]-boroLys--OH HCl]
< 500 nM	< 500 nM	–	–	–	–	Hydrocinnamoyl-[N-(Phenethyl)-Gly]-boroOrn(CH=NH)-C10H16 HCl [Example 49.1.2]
< 500 nM	< 500 nM	< 50000 nM	–	–	–	Hydrocinnamoyl-[N-(Cyclopropyl)-Gly]-boroOrn(CH=NH)--OH HCl [Example 57.4.2]
< 500 nM	< 500 nM	–	–	–	–	Hydrocinnamoyl-[N-(N(CH3)2)-Gly]-boroOrn(CH=NH)-C10H16 HCl [Example 50.1.2]
< 500 nM	< 500 nM	–	–	–	–	NCCCCC(NC(=O)CN(C(=O)Cc1cccs1)C1CC1)B(O)O (stereo not shown) [Example 78.1.3, Thiophenacetyl-[N-(Cyclopropyl)-Gly]-boroLys--OH HCl]
< 500 nM	< 500 nM	–	–	–	–	Hydrocinnamoyl-[N-(N(CH3)2)-Gly]-boroLys--OH HCl [Example 72.1.3]
< 500 nM	< 500 nM	–	–	–	–	CC1(C)C2CC3OB(C(CCCCN)NC(=O)CN(C(=O)Cc4cccs4)C4CC4)OC3(C)C1C2 (stereo not shown) [Example 79.1.3, Thiophenacetyl-[N-(Cyclopropyl)-Gly]-boroLys-C10H16 HCl]
< 500 nM	–	< 50000 nM	< 50000 nM	–	–	COC(=O)CCCC(=O)N(CCc1ccccc1)CC(=O)NC(CCCCN)B1OC2CC3CC(C3(C)C)C2(C)O1 (stereo not shown) [Example 69.4.1, Methyl Glutaryl-[N-(Phenethyl)-Gly]-boroLys-C10H16 HCl]
< 500 nM	–	< 500 nM	< 50000 nM	–	–	Cc1cccc(CCN(CC(=O)NC(CCCCN)B2OC3CC4CC(C4(C)C)C3(C)O2)C(=O)CCC(=O)O)c1 (stereo not shown) [Example 73.1.2, Succinyl-[N-(3-(Methyl)-Phenethyl)-Gly]-boroLys-C10H16 HCl]
< 500 nM	–	< 500 nM	< 500 nM	–	–	Hydrocinnamoyl-[N-(2-(Cyclopropyl)-Phenethyl)-Gly]-boroOrn(CH=NH)--OH HCl [Example 57.1.2]
< 500 nM	< 50000 nM	–	–	–	–	Hydrocinnamoyl-[N-(N-(Methyl)-Phenyl)-Gly]-boroLys--OH HCl [Example 53.2.1]

Second part, the molecule before the results:

Molecule	Ki (human thrombin)	IC50 (Thrombin time)	Ki (human factor Xa; [1])	Ki (human factor VIIa)	Ki (human factor Xa; pH 7.5, hydrochloride salt, read-out: Ki values for inhibition of Serine Proteases: Factor Xa)	Ki values for inhibition of Serine Proteases: Factor VIIa (human factor VIIa)
CN(c1ccccc1)N(CC(=O)NC(CCCCN)B1OC2CC3CC(C3(C)C)C2(C)O1)C(=O)CCc1ccccc1 (stereo not shown) [Example 54.2.1, Hydrocinnamoyl-[N-(N-(Methyl)-Phenyl)-Gly]-boroLys-C10H16 HCl]	< 500 nM	< 50000 nM	–	–	–	–
NCCCCC(NC(=O)CN(C(=O)CCc1ccccc1)C1CC1)B(O)O (stereo not shown) [Example 59.4.2, Hydrocinnamoyl-[N-(Cyclopropyl)-Gly]-boroLys--OH HCl]	< 500 nM	< 500 nM	< 50000 nM	–	–	–
Hydrocinnamoyl-Sar-Lys[CH(OH)(OCH3)--C(=O)--OCH3] HCl [Example 61.4.1]	< 500 nM	< 50000 nM	< 50000 nM	< 50000 nM	–	–
2-(Thiophenyl)-Benzoyl-Sar-boroOrn(CH=NH)-C10H16 HCl [Example 63.4.1]	< 500 nM	< 500 nM	< 500 nM	< 50000 nM	–	–
CC(C)(CN(CC(=O)NC(CCCCN)B(O)O)C(=O)CCc1ccccc1)c1ccccc1 (stereo not shown) [Example 53.1.1, Hydrocinnamoyl-[N-(2,2-dimethyl)-phenethyl-Gly]-boroLys--OH hydrochloride salt]	< 500 nM	< 500 nM	–	< 500 nM	< 500 nM	–
N=CNCCCC(NC(=O)CN(CCc1ccccc1)C(=O)CCc1ccccc1)B(O)O (stereo not shown) [Example 49.1.3, Hydrocinnamoyl-[N-(Phenethyl)-Gly]-boroOrn(CH=NH)--OH HCl]	< 500 nM	< 500 nM	< 500 nM	–	–	–
CN(CC(=O)NC(CCCCN)B1OC2CC3CC(C3(C)C)C2(C)O1)Cc1ccccc1Cn1cccc1 (stereo not shown) [Example 64.1.3, Pinanediol N-{N-methyl-N-[2-(pyrrol-1-ylmethyl)-Benzyl]glycyl}-1-amido-5-aminopentaneboronate, hydrochloride salt]	< 500 nM	< 50000 nM	–	–	–	–
CN=C(N)NCCCC(NC(=O)CN(CCc1ccccc1)C(=O)CCc1ccccc1)B1OC2CC3CC(C3(C)C)C2(C)O1 (stereo not shown) [Example 49.2.1, Hydrocinnamoyl-[N-(Phenethyl)-Gly]-boroArg(CH3)-C10H16 HCl]	< 500 nM	< 50000 nM	< 500 nM	–	–	–
Cc1cc(C)cc(CCN(CC(=O)NC(CCCN)B2OC3CC4CC(C4(C)C)C3(C)O2)C(=O)CCc2ccccc2)c1 (stereo not shown) [Example 60.4.1, Hydrocinnamoyl-{N-[2-(3,5-dimethylphenyl)-ethyl]-Gly}-boroOrn-C10H16 HCl]	< 500 nM	–	< 50000 nM	< 50000 nM	–	–
CC1(C)C2CC3OB(C(CCCN)NC(=O)CN(CCc4ccccc4)C(=O)CCc4ccccc4)OC3(C)C1C2.Cl (stereo not shown) [Example 49.1.1, Hydrocinnamoyl-[N-(Phenethyl)-Gly]-boroOrn-C10H16HCl]	< 500 nM	–	< 50000 nM	–	–	inactive
CN(CC(=O)NC(CCCCN)B(O)O)Cc1ccccc1Cn1cccc1 (stereo not shown) [Example 65.1.3, N-{N-methyl-N-[2-(pyrrol-1-ylmethyl)-Benzyl]glycyl}-1-amido-5-aminopentaneboronic acid, hydrochloride salt]	< 500 nM	< 50000 nM	–	–	–	–
CN(CC(=O)NC(CCCCSC(=N)N)B1OC2CC3CC(C3(C)C)C2(C)O1)C(=O)c1ccccc1Sc1ccccc1C#N (stereo not shown) [Example 62.2.2, (2-(2-Cyano)-Thiophenyl)-Benzoyl-Sar-borohomoIrg-C10H16 HBr]	< 500 nM	–	< 500 nM	< 50000 nM	–	–
CN(CC(=O)NC(CCCN)B1OC2CC3CC(C3(C)C)C2(C)O1)C(=O)c1ccccc1Sc1ccccc1.Cl (stereo not shown) [Example 63.3.1, 2-(Thiophenyl)-Benzoyl-Sar-boroOrn-C10H16 HCl]	< 500 nM	–	< 50000 nM	–	–	inactive
Cc1cc(C)cc(C(C)(C)CN(CC(=O)NC(CCCN=C(N)N)B2OC3CC4CC(C4(C)C)C3(C)O2)C(=O)CCc2ccccc2)c1 (stereo not shown) [Example 56.3.3, Hydrocinnamoyl-{N-[2,2-(Dimethyl)-2-(3,5-dimethylphenyl)-ethyl]-Gly}-boroArg-C10H16 HCl]	< 500 nM	–	< 500 nM	< 500 nM	–	–
NCCCCC(NC(=O)CN(C(=O)CCc1ccccc1)C1CCCCC1)B(O)O (stereo not shown) [Example 53.4.3, Hydrocinnamoyl-[N-(Cyclohexyl)-Gly]-boroLys--OH HCl]	< 500 nM	–	< 50000 nM	< 500 nM	–	–
